{"source": "paper PMC9388736", "about": "“Unexpected kinetically controlled organoselenium-based isomaleimide: X-ray structure, hirshfeld surface analysis, 3D energy framework approach, and density functional theory calculation” (Frontiers in Chemistry, 2022)", "key": {"in vitro": {"test": "in vitro", "format": "cell-based, Murine", "details": "mouse", "method": "(§1) The antiproliferative activities of OSe compounds 2, 3, and 4 were assessed against two oligodendrocyte cell lines, namely, 158 N and 158 JP, by the M.T.T. assay using 7-ketocholesterol as reference control (Supporting info, Supplementary Table S1) ([Vejux et al., 2005]; [Nury et al., 2014]). The redox profile of the compounds was evaluated using the H2-DCFDA assay, and their antiapoptotic potential was also assessed by flow cytometry ([Wilhelm et al., 2009]; [Karlsson et al., 2010]; [Shaaban et al., 2018]). Murine oligodendrocytes ([…] and 158JP) were seeded at 240,000 cells per 24-well plates and were grown using the Dulbecco's Modified Eagle Medium supplemented with penicillin antibiotics (1% v/v, streptomycin) and fetal bovine serum (5% v/v) and kept at 37 °C in atmosphere containing 5% CO2. The concentration of 7kc and vitamin E, and the time of treatment were chosen based on data obtained on 7kc treated […] cells. Organoselenium compounds were prepared in DMSO and then diluted with DMEM up to 1 mM. The MTT assay was carried out on […] and 158JP cells after one day of incubation with 7kc (50μM)/different concentrations (0, 1, 10, 20, 50 and 100 μM) of the organic selenides. In live cells, the MTT is reduced to formazan by the succinate dehydrogenase mitochondrial enzyme. The microplate reader Tecan Sunrise (Tecan, Lyon, France) was used for the reading of the plates at 570 nm. The IC50 values and the maximum concentrations without toxicity were estimated for each of the compounds from the respective dose-response curves."}, "158JP cells": {"system": "158JP cells", "test": "in vitro", "format": "cell-based, Murine", "details": "for IC50: mouse, 1 day", "method": "as §1"}, "158N cells [1]": {"system": "158N cells", "test": "in vitro", "format": "cell-based, Murine", "details": "for IC50: mouse, 1 day", "method": "as §1"}, "158N cells [2]": {"system": "158N cells", "test": "H2-DCFDA assay of ROS levels by flow cytometry", "format": "cell-based, Murine", "details": "Mus musculus, ROS level, mean ± SD, * P < 0.05 vs DMSO; for activity at 10 µM: compound at 10 µM, read-out: H2-DCFDA assay (% of control), C1 (10 µM); for activity at 20 µM: compound at 20 µM, read-out: H2-DCFDA assay (% of control), C2 (20 µM); for activity at 50 µM: compound at 50 µM, read-out: H2-DCFDA assay (% of control), C3 (50 µM)", "method": "The antiproliferative activities of OSe compounds 2, 3, and 4 were assessed against two oligodendrocyte cell lines, namely, 158 N and 158 JP, by the M.T.T. assay using 7-ketocholesterol as reference control (Supporting info, Supplementary Table S1) ([Vejux et al., 2005]; [Nury et al., 2014]). The redox profile of the compounds was evaluated using the H2-DCFDA assay, and their antiapoptotic potential was also assessed by flow cytometry ([Wilhelm et al., 2009]; [Karlsson et al., 2010]; [Shaaban et al., 2018]). ROS overproduction and O2^•− and were detected with H2-DCFDA assay. Cultured cells were treated with trypsin re-suspended in PBS (10^6 cells/mL) and kept in the dark for half hour at 37 °C with H2-DCFDA at 10 μM and cells were analyzed by flow cytometry. The green fluorescence of 2’,7’- dichlorofluorescein resulting from the oxidation of H2-DCFDA was analyzed by flow cytometry and collected through a 520/10-nm band pass filter. Flomax (Partec) or FlowJo (Tree Star Inc.) software were used for the data analysis."}, "158N cells [3]": {"system": "158N cells", "test": "Antiapoptotic effect: Sub-G1 peak by flow cytometry, PI staining, 7kc as apoptosis stimulator", "format": "cell-based, Murine", "details": "158N cells stained with P.I., 7kc (50 μM) 24 hours, compound at 50, 10, 5 and 1 μM", "method": "Furthermore, the antiapoptotic activities of compounds 2, 3, and 4 were also evaluated by flow cytometry in 158N cells stained with P.I. using 7Kc as apoptosis stimulator and the positive reference (Supporting info, Supplementary Figure S1). […] The N-maleanilic acid 3 amphiphilic characters favor its crossing through the cell membrane and, therefore, its better activity.\nThe analysis of the cell cycle can reveal a Sub-G1 peak, which is representative of apoptotic cells. Cell cycle analysis was detected on 158N cells stained with Propidium Iodide (PI). Flow cytometric analyses were measured on a Galaxy flow cytometer. Cells were prepared by re-suspension in cold ethanol (80%, −20 °C) for 2 hrs.Cells were then washed withphosphate buffer, and re-suspended in phosphate buffer (300 μL) containing PI (80 μg/mL) and RNase (200 μg/mL) and kept for 1 h at 37°C.PBS 2 mL was then added, and Fluorescence of propidium iodide was recorded using a 590 ± 10 nm band filter. The percentage of cells in different cell cycle phase was manually estimated.\nFigure S1. Anti-apoptotic effect of the organoselenium derivative 3 on oligodendrocytes. The anti-apoptotic effect was measured by cytometry using propidium iodide. […]"}}, "data": [{"smiles": "O=C1C=CC(=Nc2ccc([Se]Cc3ccc(Br)cc3)cc2)O1", "note": "[Compound 4]", "values": [{"measurement": "IC50 at 1 day", "setting": "in vitro; Cytotoxicity assay IC50, 158JP", "value": "≥ 100", "unit": "µM"}, {"measurement": "IC50 at 1 day", "setting": "in vitro; Cytotoxicity assay IC50, 158N", "value": "≥ 100", "unit": "µM"}, {"measurement": "IC50", "setting": "158JP cells", "value": "> 100", "unit": "µM"}, {"measurement": "IC50", "setting": "158N cells [1]", "value": "> 100", "unit": "µM"}, {"measurement": "melting point", "value": "185 to 187", "unit": "°C"}, {"measurement": "activity at 10 µM", "setting": "158N cells [2]", "value": "7 ± 4", "unit": "%"}, {"measurement": "activity at 20 µM", "setting": "158N cells [2]", "value": "8 ± 4", "unit": "%"}, {"measurement": "activity at 50 µM", "setting": "158N cells [2]", "value": "11 ± 4", "unit": "%"}]}, {"smiles": "CC(C)CCC[C@@H](C)[C@H]1CC[C@H]2[C@@H]3C(=O)C=C4C[C@@H](O)CC[C@]4(C)[C@H]3CC[C@]12C", "note": "[7kc, 7-ketocholesterol, reference compound]", "values": [{"measurement": "IC50 at 1 day", "setting": "in vitro; Cytotoxicity assay IC50, 158JP", "value": 74, "unit": "µM"}, {"measurement": "IC50 at 1 day", "setting": "in vitro; Cytotoxicity assay IC50, 158N", "value": 37, "unit": "µM"}, {"measurement": "activity at 50 µM", "setting": "158N cells [2]", "value": "48 ± 2", "unit": "%"}]}, {"smiles": "O=C(O)C=CC(=O)Nc1ccc([Se]Cc2ccc(Br)cc2)cc1", "note": "[Compound 3, 4-((4-((4-bromobenzyl)selanyl)phenyl)amino)-4-oxobut-2-enoic acid]", "values": [{"measurement": "IC50 at 1 day", "setting": "in vitro; Cytotoxicity assay IC50, 158JP", "value": 50, "unit": "µM"}, {"measurement": "IC50 at 1 day", "setting": "in vitro; Cytotoxicity assay IC50, 158N", "value": 29, "unit": "µM"}, {"measurement": "cytotoxicity (in words)", "setting": "158JP cells", "value": "moderate-low cytotoxicity"}, {"measurement": "cytotoxicity (in words)", "setting": "158N cells [1]", "value": "moderate-low cytotoxicity"}, {"measurement": "formation of SubG1 peak (antiapoptotic activity, in words)", "setting": "158N cells [3]", "value": "lowered, in a concentration-dependent manner, the formation of SubG1 peak"}, {"measurement": "melting point", "value": "215 to 217", "unit": "°C"}, {"measurement": "activity at 10 µM", "setting": "158N cells [2]", "value": "42 ± 10", "unit": "%"}, {"measurement": "activity at 20 µM", "setting": "158N cells [2]", "value": "36 ± 20", "unit": "%"}, {"measurement": "activity at 50 µM", "setting": "158N cells [2]", "value": "31 ± 20", "unit": "%"}]}, {"smiles": "Nc1ccc([Se]Cc2ccc(Br)cc2)cc1", "note": "[Compound 2, 4-((4-bromobenzyl)selanyl)aniline]", "values": [{"measurement": "IC50 at 1 day", "setting": "in vitro; Cytotoxicity assay IC50, 158JP", "value": "≥ 100", "unit": "µM"}, {"measurement": "IC50 at 1 day", "setting": "in vitro; Cytotoxicity assay IC50, 158N", "value": "≥ 100", "unit": "µM"}, {"measurement": "IC50", "setting": "158JP cells", "value": "> 100", "unit": "µM"}, {"measurement": "IC50", "setting": "158N cells [1]", "value": "> 100", "unit": "µM"}, {"measurement": "melting point", "value": "156 to 158", "unit": "°C"}, {"measurement": "activity at 10 µM", "setting": "158N cells [2]", "value": "36 ± 8", "unit": "%"}, {"measurement": "activity at 20 µM", "setting": "158N cells [2]", "value": "41 ± 2", "unit": "%"}, {"measurement": "activity at 50 µM", "setting": "158N cells [2]", "value": "48 ± 2", "unit": "%"}]}]}
